In publication PMC5007552, “The hVps34‐SGK3 pathway alleviates sustained PI3K/Akt inhibition by stimulating mTORC1 and tumour growth” (The EMBO Journal, 2016):

Tests used:
ZR-75-1 cells = assay: Immunoblot of Akt/mTORC1 pathway markers (Akt, PRAS40, TSC2, S6K1, Rictor, S6, 4EBP1) in ZR-75-1 cells; assay type: cell-based, human
Description: Kinase reactions are presented as means ± SD for triplicate reaction. Immunoprecipitates (IP) were also analysed by immunoblot with the indicated antibodies. • SGK3 was knocked down in ZR‐75‐1 cells by using shRNA probe B and compared to a control shRNA probe, named sh scramble. After infection, the cells were kept for 2 days in puromycin selection media and then seeded for the experiment. The cells were treated with 1 μM MK‐2206 for 1 h or 5 days. The cell lysates were subjected to immunoblot analysis with the indicated antibodies.
The cell lysates were analysed by immunoblot using the antibody against phosphorylated Akt phosphorylation consensus motif (RxRxxpS/pT).
HEK293 cells were purchased from the American Tissue Culture Collection (ATCC). Cells were cultured in RPMI or DMEM media supplemented with 10% (v/v) foetal bovine serum, 2 mM L‐glutamine, 100 U/ml penicillin and 0.1 mg/ml streptomycin. Inhibitor treatments were carried out as described in figure legends. During 5 days inhibitor treatments, the media was changed after 72‐h intervals. The cells were lysed in buffer containing 50 mM Tris–HCl (pH 7.5), 150 mM NaCl, 1 mM EDTA, 1 mM EGTA, 1 mM sodium orthovanadate, 10 mM sodium glycerophosphate, 10 mM sodium pyrophosphate, 0.27 M sucrose, 0.1% (v/v) 2‐mercaptoethanol, 1 mM benzamidine and 0.1 mM PMSF. Lysates were clarified by centrifugation at 16,000 g for 10 min at 4°C. Protein concentration was calculated using Bradford assay (Thermo Scientific). Immunoblotting and immunoprecipitation were performed using standard procedures. The signal was developed using ECL Western Blotting Detection Kit (Amersham) on Amersham Hyperfilm ECL film (Amersham).

SGK3[S486E] = biological target: T1, SGK3[S486E] (Homo sapiens, UniProt Q96BR1, S486E); assay: SGK3 kinase assay on phospholipid vesicles: phosphorylation of SGK3[S486E] at Thr320 by PDK1 with PtdIns(3)P; assay type: biochemical; conditions: in the presence of PtdIns(3)P
T1 construct: host or cells: HEK293
T1 sequence (Q96BR1 1-496 S486E): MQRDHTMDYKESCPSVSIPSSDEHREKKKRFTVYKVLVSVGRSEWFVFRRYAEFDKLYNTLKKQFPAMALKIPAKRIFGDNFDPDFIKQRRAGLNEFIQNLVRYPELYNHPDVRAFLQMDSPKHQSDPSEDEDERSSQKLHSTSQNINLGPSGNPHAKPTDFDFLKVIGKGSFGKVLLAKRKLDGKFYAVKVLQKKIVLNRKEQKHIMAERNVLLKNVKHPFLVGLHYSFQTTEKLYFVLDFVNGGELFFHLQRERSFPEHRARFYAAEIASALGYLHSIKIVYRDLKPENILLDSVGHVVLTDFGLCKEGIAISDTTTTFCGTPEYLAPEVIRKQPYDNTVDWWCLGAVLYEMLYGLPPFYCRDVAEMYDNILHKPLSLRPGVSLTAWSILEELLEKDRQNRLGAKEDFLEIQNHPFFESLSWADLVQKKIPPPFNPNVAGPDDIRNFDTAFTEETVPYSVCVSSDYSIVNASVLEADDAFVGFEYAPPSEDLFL
Description: Figure 4 PtdIns(3)P binding to PX domain of SGK3 promotes phosphorylation and activation by PDK1 • A, B SGK3 [S486E]‐GST and SGK3 [R90A S486]‐GST were purified from HEK293 cells transiently overexpressing these enzymes. […] SGK3[S486E]‐GST (A) or the non‐PtdIns(3)P‐binding mutant SGK3[R90A, S486E]‐GST (B) was incubated with lipid vesicles comprising phosphatidylcholine (PC) and phosphatidylserine (PS) containing the indicted concentrations of PtdIns or PtdIns(3)P in the presence or absence of added recombinant PDK1 (50 ng) and kinase reactions were initiated by addition of MgATP. After 30 min at 30°C, PDK1 was inhibited by addition of the 1 μM GSK2334470 PDK1 inhibitor and the reaction mixture was supplemented with 2 μg GST‐NDRG1 SGK3 substrate. After another 30 min at 30°C, the reaction was terminated by addition of SDS sample buffer. The reaction mixtures were subjected to immunoblot analysis with the indicated antibodies.
The result for each kinase is presented as a mean kinase activity of the reaction taken in triplicate relative to a control reaction where the inhibitors were omitted. […] SGK3 was immunoprecipitated from cell lysates and subjected to in vitro kinase assay by measuring phosphorylation of the Crosstide substrate peptide in the presence of 0.1 mM [γ‐^32P]ATP in a 30 min 30°C reaction (upper panel). Kinase reactions are presented as means ± SD for triplicate reaction. […]

[1] = 1–3 μM 14h, 1 h, ZR-75-1 in serum
[2] = ZR-75-1, 5 days GDC0941 or MK-2206, then 3 μM 14h 1 h

How did the “S6K1 and S6 protein phosphorylation” value (ZR-75-1 cells; 10 μM 14h, 1 h, ZR-75-1 in serum) turn out when `Nc1n[nH]c2nc(-c3ccc(NS(=O)(=O)c4cc(Cl)ccc4Cl)cc3)cnc12` [14h] was run?
The value was “moderate reduction”.

And the “PRAS40 (Akt-specific substrate) phosphorylation” value (ZR-75-1 cells; [1])?
Its value is “not dephosphorylated”.

What about the “Rictor (Thr1135) and S6 protein (Ser240/244) phosphorylation” value (ZR-75-1 cells; [1]) of the same compound?
The value was “failed to significantly inhibit”.

What about the 4EBP1 phosphorylation (ZR-75-1 cells; [2]) of the same compound?
Its 4EBP1 phosphorylation is “not markedly reduced”.

And the TSC2 phosphorylation (ZR-75-1 cells; [2])?
The TSC2 phosphorylation was “suppressed phosphorylation of TSC2”.

And the “TSC2, S6K1, Rictor, S6 protein or 4EBP1 phosphorylation or S6K1 activity” value (ZR-75-1 cells; ZR-75-1 in serum without prolonged PI3K or Akt inhibitor treatment, 3 μM 14h)?
The value was “did not inhibit”.

What about the “concentration of near maximal inhibition of PDK1 phosphorylating SGK3[S486E] at Thr320” value (SGK3[S486E]) of the same compound?
Its value is 0.1 µM.
